Measurements taken from paper PMC11348715 (Chemical Science, 2024).

Assay: Caco-2 permeability assay
Assay type: in vitro ADME
Conditions: human

Papp A→B at 10 µM [×10⁻⁶ cm/s] | Structure (SMILES)
19.8 | COCCc1ccc(OCC(O)CNC(C)C)cc1 (centres unmarked) [metoprolol]
1.59 | C[C@H]1O[C@@H](O[C@H]2[C@@H](O)C[C@H](O[C@H]3[C@@H](O)C[C@H](O[C@H]4CC[C@@]5(C)[C@H](CC[C@@H]6[C@@H]5C[C@@H](O)[C@]5(C)[C@@H](C7=CC(=O)OC7)CC[C@]65O)C4)O[C@@H]3C)O[C@@H]2C)C[C@H](O)[C@@H]1O [digoxin]
